The text below walks through data of US20240174690A1, “ANNULATED 2-AMINO-3-CYANO THIOPHENES AND DERIVATIVES FOR THE TREATMENT OF CANCER” (BOEHRINGER INGELHEIM INTERNATIONAL GMBH, priority 2021, published 2024).

A short description of data set [1]: Caco-2 assay (permeability PappAB, PappBA, efflux ratio). It counts as in vitro ADME. To be noted: human, Caco-2, 10 μM test compound, pH 7.4; for Papp A→B at 90 min, 10 μM: apical to basolateral; for efflux ratio at 90 min, 10 μM: efflux ratio PappBA/PappAB, read-out: Caco ER. In a few lines:
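Confluent Caco-2 monolayers on filter supports, 0.25% BSA in both donor and receiver buffer; transport measured a-b and b-a. After 25-30 min preincubation at 37 °C, samples at 0, 30, 60, 90 min quantified by HPLC/MS/MS. Papp from receiver amount per time, filter area and initial donor concentration; efflux ratio = PappBA/PappAB.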

A short description of data set [2]: Metabolic (microsomal) stability assay, human liver microsomes (HLM). The format is in vitro ADME. The note with it: predicted clearance as percent of liver blood flow, 1 μM. In a few lines:
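LC-MS/MS tracked parent disappearance at 0, 5, 15, 30 and 60 min in NADPH-initiated incubations with 1 mg/mL human microsomal protein and 1 μM compound at 37°C, pH 7.5. First-order fits gave intrinsic clearance, which was scaled up and reported as % QH. NADPH-free controls were also run.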

In data set [3] the test system is KRAS G12V-dependent Ba/F3 cells. Put plainly: Ba/F3 proliferation assay, KRAS G12V.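 Note: proliferation IC50 in KRAS G12V-dependent Ba/F3 cells read by AlamarBlue.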 It counts as cell-based. The note with it: Mus musculus, BaF3, 72 h, AlamarBlue. In short, it runs like this: (§1)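 Ba/F3 cells retrovirally transduced with KRAS G12 mutants, puromycin-selected and grown without IL-3, so proliferation depends on the mutant KRAS. Compounds tested in technical duplicates; viability read by AlamarBlue fluorescence, with curve fitting for potency.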

Data set [4] deals with KRAS G12C-dependent Ba/F3 cells. Put plainly: Ba/F3 proliferation assay, KRAS G12C. It counts as cell-based. To be noted: Mus musculus, BaF3, 72 h, AlamarBlue. In a few lines:
as §1
For orientation: Alamar Blue is a resazurin reagent that responds to reducing activity.

The next data set has as its system SK-CO-1 cells. Briefly: SK-CO-1 CTG proliferation assay (120 h) (CRC, G12V). To be noted: Homo sapiens; SK-CO-1 cells (CRC, G12V), CTG 120 h. It counts as cell-based. In short, it runs like this: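 SK-CO-1 colorectal cells (KRAS G12V), 500 per well in EMEM + 10% FCS, dosed with compound the day after seeding and grown 120 h at 37 °C. Viability by CellTiter-Glo luminescence as percent of DMSO control; IC50 from four-parameter non-linear regression.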

For the compound `C[C@H](Oc1cc(-n2ccc(C(=O)N[C@@H]3CCOC3)n2)nc(-c2noc3c2CCC[C@@]32CCCc3sc(N)c(C#N)c32)n1)[C@@H]1CCCN1C` [II-192], the Papp A→B (as a rule, how fast a substance crosses the layer from the apical side) at 90 min, 10 μM in data set [1] turned out to be 10 ×10⁻⁶ cm/s. The efflux ratio at 90 min, 10 μM in data set [1] stood at 2.5. For the same compound, in data set [2], the “HLM QH” value was 30%. The figures for the IC50 (in data set [3]; in data set [4]; in the data set with SK-CO-1 cells) were 2 nM, 2 nM and 4 nM, respectively.
With `C[C@H](Oc1cc(-n2ccc(C(=O)N(C)C3COC3)n2)nc(-c2noc3c2CCC[C@@]32CCCc3sc(N)c(C#N)c32)n1)[C@@H]1CCCN1C` [II-194], the Papp A→B at 90 min, 10 μM in data set [1] worked out at 11 ×10⁻⁶ cm/s. The efflux ratio at 90 min, 10 μM in data set [1] is 2.6. In addition, the “HLM QH” value in data set [2] is 30%. In addition, the half-inhibitory concentration (IC50) (in general, the concentration that gives 50% inhibition) came to 4 nM in data set [3], 4 nM in data set [4] and 11 nM in the data set on SK-CO-1 cells.
In the case of `COCCNC(=O)c1ccn(-c2cc(O[C@@H](C)[C@@H]3CCCN3C)nc(-c3noc4c3CCC[C@@]43CCCc4sc(N)c(C#N)c43)n2)n1` [II-195], the apical-to-basolateral permeability (Papp A→B) at 90 min, 10 μM in data set [1] is 6.2 ×10⁻⁶ cm/s. Further, in data set [1], the efflux ratio at 90 min, 10 μM amounted to 4.5. In data set [2], the “HLM QH” value is reported as 44%. The half-inhibitory concentration (IC50) was 2 nM in data set [3], 2 nM in data set [4] and 4 nM with SK-CO-1 cells.
As to `CO[C@H]1CCN(C)[C@@H]1[C@H](C)Oc1cc(-n2ccc(C(N)=O)n2)nc(-c2noc3c2CCC[C@@]32CCCc3sc(N)c(C#N)c32)n1` [II-201], the Papp A→B at 90 min, 10 μM in data set [1] worked out at 18 ×10⁻⁶ cm/s. In addition, the efflux ratio at 90 min, 10 μM in data set [1] was determined as 1.8. Further, in data set [2], the “HLM QH” value is listed as 41%. Further, the results for the IC50 (in data set [3]; in data set [4]; in the data set with SK-CO-1 cells) were 1 nM, 3 nM and 9 nM, respectively.
In the case of `C[C@H](Oc1cc(-n2cc3ccn([C@H]4CCOC4)c(=O)c3n2)nc(-c2noc3c2CCC[C@@]32CCCc3sc(N)c(C#N)c32)n1)[C@@H]1CCCN1C` [II-202], the Papp A→B at 90 min, 10 μM in data set [1] stood at 4.4 ×10⁻⁶ cm/s. For the same compound, in data set [1], the efflux ratio at 90 min, 10 μM worked out at 3.6. For the same compound, the “HLM QH” value in data set [2] is recorded as less than 24%. In addition, the results for the 50% inhibitory concentration (IC50) (in data set [3]; in data set [4]; in the data set on SK-CO-1 cells) were 6 nM, 18 nM and 6 nM, respectively.
With `C[C@H](Oc1cc(-n2cc3ccn(C4CCOCC4)c(=O)c3n2)nc(-c2noc3c2CCC[C@@]32CCCc3sc(N)c(C#N)c32)n1)[C@@H]1CCCN1C` [II-206], in data set [1], the efflux ratio at 90 min, 10 μM came out at 16.8. In addition, in data set [2], the “HLM QH” value is less than 24%. In addition, the IC50 in data set [3] turned out to be 3 nM; in data set [4] it was 7 nM; in the data set on SK-CO-1 cells, 11 nM.
In the same order, the values of `C[C@H](Oc1cc(-n2ccc(-c3cn(C4CCOCC4)nn3)n2)nc(-c2noc3c2CCC[C@@]32CCCc3sc(N)c(C#N)c32)n1)[C@@H]1CCCN1C` [II-210] are 2.6, less than 24%, 2 nM, 2 nM and 3 nM.
In the same order, the values of `C[C@H](Oc1cc(-n2ccc(-c3cn([C@@H]4CCOC4)nn3)n2)nc(-c2noc3c2CCC[C@@]32CCCc3sc(N)c(C#N)c32)n1)[C@@H]1CCCN1C` [II-211] are 2.2, less than 24%, 3 nM, 6 nM and 4 nM.
Regarding `C[C@H](Oc1cc(-n2ccc(-c3cn(CC4(C)COC4)nn3)n2)nc(-c2noc3c2CCC[C@@]32CCCc3sc(N)c(C#N)c32)n1)[C@@H]1CCCN1C` [II-213], the efflux ratio at 90 min, 10 μM in data set [1] stood at 2.6. For the same compound, in data set [2], the “HLM QH” value is given as less than 24%. Also, the figures for the IC50 (in data set [3]; in data set [4]; with SK-CO-1 cells) were 6 nM, 11 nM and 7 nM, respectively.
